Laboratory results from US11639353B2, “Cyclobutanes- and azetidine-containing mono and spirocyclic compounds as αV integrin inhibitors” (BRISTOL-MYERS SQUIBB COMPANY, priority 2016, dated 2023).

How the values were obtained:
Conditions in all cases: alternatively SPA-based assay
human αVβ1 = human αVβ1 (Homo sapiens, UniProt P05556+P06756); test: human αVβ1 HTRF binding assay
Method: (§1) All binding assays used the HTRF (homogeneous time resolved fluorescence) technology from Cisbio International, therefore all assays are described as HTRF binding assays. The assay results for the Examples are listed above together with the characterization data. The HTRF binding assays are established for the following integrins: human αVβ6, human αVβ1, human αVβ3, human αVβ5, and human αVβ8. All assays used the following assay buffer: 20 mM Tris, pH 7.4, 1 mM MgCl2, 1 mM MnCl2, 0.01% Tween 20, and 0.01% BSA. Alternatively, a SPA-based assay was used for evaluation of receptor binding.
(§2) The SPA-based assay was carried out according to the protocol and procedures similar to the ones described in the following reference with appropriate modifications to agents and ligands which are readily understood by one skilled in the art: Pachter J A, Zhang R, Mayer-Ezell R., “Scintillation proximity assay to measure binding of soluble fibronectin to antibody-captured αVβ1 integrin” Anal Biochem. 1995 Sep. 1; 230(1):101-7.

human αVβ5 = human αVβ5 (Homo sapiens, UniProt P06756+P18084); test: human αVβ5 HTRF binding assay
Method: as §1, §2

human αVβ3 = human αVβ3 (Homo sapiens, UniProt P05106+P06756); test: human αVβ3 HTRF binding assay
Method: as §1, §2

human αVβ8 = human αVβ8 (Homo sapiens, UniProt P06756+P26012); test: human αVβ8 HTRF binding assay
Method: as §1, §2

human αVβ6 = target: T1, human αVβ6 (Homo sapiens, UniProt P06756+P18564); test: human αVβ6 HTRF binding assay
T1 construct: purchased R & D systems 3817-AV
In short: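 Biotinylated recombinant human αVβ6 (1.25 nM final) incubated with FITC-fibronectin (5 nM final) 1 h at RT, then streptavidin-terbium (0.625 nM final) added and left overnight at RT in the dark before HTRF reading. Buffer: 20 mM Tris pH 7.4, 1 mM MgCl2, 1 mM MnCl2, 0.01% Tween 20, 0.01% BSA.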

human αVβ5, sequence (P06756 31-992 limits assumed): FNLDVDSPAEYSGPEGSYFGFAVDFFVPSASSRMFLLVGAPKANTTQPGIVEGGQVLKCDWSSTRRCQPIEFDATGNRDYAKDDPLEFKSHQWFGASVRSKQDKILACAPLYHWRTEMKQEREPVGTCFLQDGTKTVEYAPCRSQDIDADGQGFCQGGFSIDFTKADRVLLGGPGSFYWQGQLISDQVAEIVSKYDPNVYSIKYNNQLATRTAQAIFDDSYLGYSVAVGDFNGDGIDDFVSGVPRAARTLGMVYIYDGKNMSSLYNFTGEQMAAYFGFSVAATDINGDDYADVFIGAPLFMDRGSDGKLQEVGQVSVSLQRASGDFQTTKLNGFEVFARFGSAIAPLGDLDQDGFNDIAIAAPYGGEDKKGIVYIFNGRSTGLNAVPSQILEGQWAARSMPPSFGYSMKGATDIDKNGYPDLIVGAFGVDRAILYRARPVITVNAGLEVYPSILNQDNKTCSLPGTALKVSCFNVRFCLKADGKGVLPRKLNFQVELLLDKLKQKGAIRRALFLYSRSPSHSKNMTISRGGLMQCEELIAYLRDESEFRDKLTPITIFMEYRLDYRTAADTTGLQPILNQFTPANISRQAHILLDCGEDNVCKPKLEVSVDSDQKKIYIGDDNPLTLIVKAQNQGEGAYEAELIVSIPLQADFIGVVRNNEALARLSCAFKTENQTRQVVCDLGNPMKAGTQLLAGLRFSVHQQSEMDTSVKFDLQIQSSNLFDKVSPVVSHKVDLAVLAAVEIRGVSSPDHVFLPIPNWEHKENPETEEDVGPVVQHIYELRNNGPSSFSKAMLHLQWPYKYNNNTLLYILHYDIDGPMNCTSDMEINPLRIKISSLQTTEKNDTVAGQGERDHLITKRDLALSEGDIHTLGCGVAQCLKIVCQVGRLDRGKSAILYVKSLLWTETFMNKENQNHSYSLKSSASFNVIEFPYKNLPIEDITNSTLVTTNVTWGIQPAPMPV
human αVβ5, sequence (P18084 24-719 limits assumed): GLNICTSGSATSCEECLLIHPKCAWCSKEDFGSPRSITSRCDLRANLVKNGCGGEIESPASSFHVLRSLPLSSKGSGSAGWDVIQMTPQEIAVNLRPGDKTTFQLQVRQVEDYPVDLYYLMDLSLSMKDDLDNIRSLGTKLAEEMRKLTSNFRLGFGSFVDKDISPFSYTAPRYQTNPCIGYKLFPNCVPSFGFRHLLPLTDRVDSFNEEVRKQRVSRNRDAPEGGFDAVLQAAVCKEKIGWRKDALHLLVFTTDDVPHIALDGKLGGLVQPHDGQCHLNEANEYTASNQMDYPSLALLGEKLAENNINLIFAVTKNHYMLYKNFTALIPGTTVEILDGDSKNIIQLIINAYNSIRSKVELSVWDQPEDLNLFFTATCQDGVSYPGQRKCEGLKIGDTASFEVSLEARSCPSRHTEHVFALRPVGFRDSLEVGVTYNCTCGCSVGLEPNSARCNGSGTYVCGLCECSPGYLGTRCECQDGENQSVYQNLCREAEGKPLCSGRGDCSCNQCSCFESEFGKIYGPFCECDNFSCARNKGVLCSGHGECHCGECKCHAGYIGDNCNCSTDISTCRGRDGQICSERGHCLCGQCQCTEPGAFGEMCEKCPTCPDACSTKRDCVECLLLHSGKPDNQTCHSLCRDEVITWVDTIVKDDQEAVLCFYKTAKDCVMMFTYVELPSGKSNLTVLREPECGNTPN
human αVβ8, sequence (P06756 31-992 limits assumed): as the sequence (P06756 31-992 limits assumed) above
human αVβ8, sequence (P26012 43-684 limits assumed): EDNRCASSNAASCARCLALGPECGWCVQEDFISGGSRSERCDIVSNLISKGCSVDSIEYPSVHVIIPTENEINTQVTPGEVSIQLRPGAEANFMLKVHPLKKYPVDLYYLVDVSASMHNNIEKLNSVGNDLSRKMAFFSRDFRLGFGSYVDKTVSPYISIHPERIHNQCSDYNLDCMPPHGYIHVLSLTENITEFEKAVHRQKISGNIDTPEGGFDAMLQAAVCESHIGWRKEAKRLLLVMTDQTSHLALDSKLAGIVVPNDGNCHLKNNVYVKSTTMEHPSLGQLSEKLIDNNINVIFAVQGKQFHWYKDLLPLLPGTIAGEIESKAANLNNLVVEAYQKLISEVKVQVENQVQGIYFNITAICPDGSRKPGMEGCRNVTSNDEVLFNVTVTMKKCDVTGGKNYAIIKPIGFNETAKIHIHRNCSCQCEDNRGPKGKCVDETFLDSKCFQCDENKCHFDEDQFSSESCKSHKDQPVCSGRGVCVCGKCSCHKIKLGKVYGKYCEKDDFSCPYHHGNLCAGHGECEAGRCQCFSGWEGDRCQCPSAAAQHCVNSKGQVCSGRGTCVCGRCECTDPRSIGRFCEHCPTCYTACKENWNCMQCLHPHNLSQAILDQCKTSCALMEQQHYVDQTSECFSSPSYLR
human αVβ3, sequence (P06756 31-992 limits assumed): as the sequence (P06756 31-992 limits assumed) above
human αVβ3, sequence (P05106 27-718 limits assumed): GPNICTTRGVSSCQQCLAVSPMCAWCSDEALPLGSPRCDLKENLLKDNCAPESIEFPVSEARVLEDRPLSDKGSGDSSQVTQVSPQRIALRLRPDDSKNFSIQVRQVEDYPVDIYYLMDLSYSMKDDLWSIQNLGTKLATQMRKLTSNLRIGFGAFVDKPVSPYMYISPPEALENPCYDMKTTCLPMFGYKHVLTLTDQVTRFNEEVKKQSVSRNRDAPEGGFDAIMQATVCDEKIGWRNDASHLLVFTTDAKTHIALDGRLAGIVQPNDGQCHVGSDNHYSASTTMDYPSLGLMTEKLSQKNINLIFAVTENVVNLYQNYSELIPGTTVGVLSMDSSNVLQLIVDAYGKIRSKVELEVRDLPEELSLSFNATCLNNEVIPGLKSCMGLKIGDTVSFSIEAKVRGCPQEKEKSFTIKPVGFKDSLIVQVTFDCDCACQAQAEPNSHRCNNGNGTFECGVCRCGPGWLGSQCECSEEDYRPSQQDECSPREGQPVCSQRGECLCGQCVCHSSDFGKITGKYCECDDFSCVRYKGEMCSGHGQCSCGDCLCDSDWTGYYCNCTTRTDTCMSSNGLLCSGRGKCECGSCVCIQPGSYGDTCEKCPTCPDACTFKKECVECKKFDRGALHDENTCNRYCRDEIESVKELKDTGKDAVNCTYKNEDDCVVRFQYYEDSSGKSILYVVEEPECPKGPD
human αVβ1, sequence (P06756 31-992 limits assumed): as the sequence (P06756 31-992 limits assumed) above
human αVβ1, sequence (P05556 21-728 limits assumed): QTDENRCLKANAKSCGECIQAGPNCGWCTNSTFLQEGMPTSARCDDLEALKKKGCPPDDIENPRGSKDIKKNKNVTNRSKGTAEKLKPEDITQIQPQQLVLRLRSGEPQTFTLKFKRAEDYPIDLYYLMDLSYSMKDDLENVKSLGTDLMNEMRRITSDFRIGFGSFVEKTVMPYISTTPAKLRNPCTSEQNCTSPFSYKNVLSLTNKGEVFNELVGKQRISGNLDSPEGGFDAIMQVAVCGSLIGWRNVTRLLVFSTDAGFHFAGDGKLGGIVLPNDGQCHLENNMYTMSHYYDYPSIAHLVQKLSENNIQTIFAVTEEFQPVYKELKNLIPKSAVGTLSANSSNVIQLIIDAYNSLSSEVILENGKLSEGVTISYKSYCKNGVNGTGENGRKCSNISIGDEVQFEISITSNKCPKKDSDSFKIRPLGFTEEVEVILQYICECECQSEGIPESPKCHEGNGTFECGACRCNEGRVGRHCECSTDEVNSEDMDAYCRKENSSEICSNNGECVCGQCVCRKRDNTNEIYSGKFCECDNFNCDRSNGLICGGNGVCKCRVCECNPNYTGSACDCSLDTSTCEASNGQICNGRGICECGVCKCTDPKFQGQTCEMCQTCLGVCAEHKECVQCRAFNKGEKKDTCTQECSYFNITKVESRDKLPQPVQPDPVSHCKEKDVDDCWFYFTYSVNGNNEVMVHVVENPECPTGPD
T1 sequence (P06756 31-992 limits assumed): as the sequence (P06756 31-992 limits assumed) above
T1 sequence (P18564 22-707 limits assumed): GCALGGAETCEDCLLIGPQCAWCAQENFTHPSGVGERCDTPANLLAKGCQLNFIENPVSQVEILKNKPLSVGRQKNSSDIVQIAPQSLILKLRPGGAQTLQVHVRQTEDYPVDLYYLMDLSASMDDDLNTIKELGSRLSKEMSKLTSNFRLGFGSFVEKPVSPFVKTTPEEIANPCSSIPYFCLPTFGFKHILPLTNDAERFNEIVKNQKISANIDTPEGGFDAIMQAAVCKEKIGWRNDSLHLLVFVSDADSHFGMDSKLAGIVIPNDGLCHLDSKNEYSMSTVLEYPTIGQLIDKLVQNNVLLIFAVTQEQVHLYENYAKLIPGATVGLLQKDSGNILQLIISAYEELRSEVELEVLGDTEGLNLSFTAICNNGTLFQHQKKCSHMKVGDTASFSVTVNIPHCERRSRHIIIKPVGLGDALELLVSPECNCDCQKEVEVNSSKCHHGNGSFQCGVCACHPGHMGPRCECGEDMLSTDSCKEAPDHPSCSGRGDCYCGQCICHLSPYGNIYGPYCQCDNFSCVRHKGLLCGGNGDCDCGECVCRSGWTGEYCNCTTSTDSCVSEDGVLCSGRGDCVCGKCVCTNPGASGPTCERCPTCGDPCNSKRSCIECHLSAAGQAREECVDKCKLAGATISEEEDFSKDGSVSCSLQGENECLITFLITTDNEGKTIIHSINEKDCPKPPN

| Compound | IC50 (human αVβ1) | IC50 (human αVβ5) | IC50 (human αVβ3) | IC50 (human αVβ8) | IC50 (human αVβ6) |
| --- | --- | --- | --- | --- | --- |
| O=C(N[C@@H](CNC(=O)[C@H]1C[C@@H](CCc2ccc3c(n2)NCCC3)C1)C(=O)O)OCc1ccccc1 [Example 77] | 48 nM | 0.01 nM | 2 nM | 82 nM | 0.54 nM |
| Cc1cc(C)c(S(=O)(=O)N[C@@H](CNC(=O)[C@H]2C[C@H](CCc3ccc4c(n3)NCCC4)C2)C(=O)O)c(C)c1 [Example 52] | 3.1 nM | 0.2 nM | 2.08 nM | 15 nM | 0.37 nM |
| Cc1cc(C)c(S(=O)(=O)N[C@@H](CNC(=O)C2(F)CN(CCc3ccc4c(n3)NCCC4)C2)C(=O)O)c(C)c1 [Example 13, (S)-3-(3-Fluoro-1-(2-(5,6,7,8-tetrahydro-1,8-naphthyridin-2-yl)ethyl)azetidine-3-carboxamido)-2-(2,4,6-trimethylphenylsulfonamido)propanoic acid] | 84 nM | 2 nM | 4.1 nM | 30 nM | 0.6 nM |
| COc1ncc([C@H](CC(=O)O)N2CC(CCCCc3ccc4c(n3)NCCC4)C2=O)cn1 (stereo partly drawn) [Example 69] | 1230 nM | 0.32 nM | 1.79 nM | 2000 nM | 3.27 nM |
| COc1ccc([C@H](CC(=O)O)N2CC(CCCCc3ccc4c(n3)NCCC4)C2=O)cn1 (stereo partly drawn) [Example 9, (3S)-3-(6-Methoxypyridin-3-yl)-3-(2-oxo-3-(4-(5,6,7,8-tetrahydro-1,8-naphthyridin-2-yl)butyl)azetidin-1-yl)propanoic acid] | 400 nM | 1.2 nM | 1.8 nM | 630 nM | 1.9 nM |
| O=C(N[C@@H](CNC(=O)C1CC(CCc2ccc3c(n2)NCCC3)C1)C(=O)O)OCc1ccccc1 (stereo partly drawn) [Example 58] | 7.6 nM | 0.15 nM | 2.4 nM | 62 nM | 0.44 nM |
| COc1ccc([C@H](CC(=O)O)NC(=O)N2CC(CCc3ccc4c(n3)NCCC4)C2)cc1F [Example 63] | 184 nM | 9.4 nM | 2.8 nM | 410 nM | 2.22 nM |
| COc1ccc([C@H](CC(=O)O)NC(=O)C2CC(CCc3ccc4c(n3)NCCC4)C2)cn1 (stereo partly drawn) [Example 56] | 67 nM | 0.58 nM | 2 nM | 55 nM | 0.57 nM |
| O=C(N[C@@H](CNC(=O)[C@H]1C[C@H](CCc2ccc3c(n2)NCCC3)C1)C(=O)O)OCc1ccccc1 [Example 78] | 37 nM | 0.42 nM | 4.2 nM | 38 nM | 0.97 nM |
| COc1ccc([C@H](CC(=O)O)NC(=O)N2CC(CCc3ccc4c(n3)NCCC4)C2)cn1 [Example 6, (S)-3-(6-Methoxypyridin-3-yl)-3-(3-(2-(5,6,7,8-tetrahydro-1,8-naphthyridin-2-yl)ethyl)azetidine-1-carboxamido)propanoic acid] | 510 nM | 7.7 nM | 6.3 nM | 430 nM | 2.8 nM |
| O=C(N[C@@H](CNC(=O)C1(F)CN(CCc2ccc3c(n2)NCCC3)C1)C(=O)O)OCc1ccccc1 [Example 45] | 28 nM | 0.3 nM | 3.07 nM | 89 nM | 0.5 nM |

More lines, now with the values ahead:

| IC50 (human αVβ1) | IC50 (human αVβ5) | IC50 (human αVβ3) | IC50 (human αVβ8) | IC50 (human αVβ6) | Compound |
| --- | --- | --- | --- | --- | --- |
| 710 nM | 1 nM | 4.4 nM | 280 nM | 0.64 nM | O=C(O)C[C@H](NC(=O)N1CC(CCc2ccc3c(n2)NCCC3)C1)c1ccc2c(c1)OCC2 [Example 97] |
| 210 nM | 34 nM | 7.1 nM | 48 nM | 1.4 nM | O=C(O)C[C@@H](c1ccc2c(c1)CCO2)N1CC(CCCCc2ccc3c(n2)NCCC3)C1=O (stereo partly drawn) [Example 110] |
| 60 nM | 41 nM | 4.7 nM | 84 nM | 0.62 nM | O=C(O)C[C@H](NC(=O)[C@H]1C[C@H](CCc2ccc3c(n2)NCCC3)C1)c1cnc2ccccc2c1 [Example 84] |
| 220 nM | 5.46 nM | 2.5 nM | 270 nM | 2 nM | O=C(O)C[C@@H](c1cnc2ccccc2c1)N1CC(CCCCc2ccc3c(n2)NCCC3)C1=O (stereo partly drawn) [Example 106] |
| 4000 nM | 150 nM | 3.2 nM | 1400 nM | 2 nM | COc1ncc([C@H](CC(=O)O)NC(=O)[C@H]2C[C@@H](CCc3ccc4c(n3)NCCC4)C2)cn1 [Example 83] |
| 2200 nM | 8.8 nM | 3.8 nM | 940 nM | 1.1 nM | Cc1ncc([C@H](CC(=O)O)NC(=O)[C@H]2C[C@@H](CCc3ccc4c(n3)NCCC4)C2)cn1 [Example 87] |
| 247 nM | 1.3 nM | 2.3 nM | 120 nM | 1.9 nM | O=C(O)C[C@H](NC(=O)N1CC(CCc2ccc3c(n2)NCCC3)C1)c1cnc2ccccc2c1 [Example 96] |
| 900 nM | 2.1 nM | 2.3 nM | 49 nM | 0.62 nM | O=C(O)C[C@H](NC(=O)C1(F)CN(CCc2ccc3c(n2)NCCC3)C1)c1cnc2ccccc2c1 [Example 80] |
| 200 nM | 15 nM | 4.2 nM | 470 nM | 0.78 nM | COc1ncc([C@H](CC(=O)O)NC(=O)[C@H]2C[C@H](CCc3ccc4c(n3)NCCC4)C2)cn1 [Example 82] |
| 150 nM | 1 nM | 2.7 nM | 190 nM | 0.87 nM | O=C(O)C[C@H](NC(=O)[C@H]1C[C@H](CCc2ccc3c(n2)NCCC3)C1)c1ccc2c(c1)OCC2 [Example 88] |
